# Legend:
# Format in all cases: cell-based
# [1] = system: HaCaT keratinocytes; test: Co-staining with organelle markers, co-localisation (PCC); conditions: 1 μM compound, 30 minutes, BODIPY ER-Tracker Red
# Procedure: To study the localisation of compounds in biological cells, co-staining of compounds of formula I with specific organelle markers (fluorescent dyes and antibodies) within biological cells was conducted. The following compounds were studied: compounds 6, 7, 12, 13, 14 and 15. HaCaT keratinocyte cell lines were used for the following experimental procedures. The cells were incubated in cell culture media (94% Dulbecco's Modified Eagle Medium (DMEM), 5% Foetal Bovine Serum (FBS) and 1% Penicillin Streptomycin solution (Pen-Strep). The cells were plated in 8-well plates, at a concentration of 25,000 cells per ml. 200 μl of cell suspension was added to each well, and the cells were incubated for 2 days before staining and imaging was carried out. In order to visualise the mitochondria, cells were probed with the mitochondrial dye MitoTracker® Deep Red. Cells to be stained were incubated with 200 μl MitoTracker® Deep Red solution (200 nM MitoTracker® and 1 μM Formula I compound in cell culture media) per well (N=3) for 30 minutes. Nile Red was used to identify lipids within the cells. 200 μl Nile Red Lipophilic dye (10 μg/ml Nile Red and 1 μM Formula I compound in cell culture media) was added to each well (N=3) and incubated for 30 minutes. For the detection of lysosomes within the cells, LysoTracker® Red DND-99 dye was used. 200 μl LysoTracker® Red DND-99 (50 nM LysoTracker® and 1 μM Formula I compound solution in cell culture media) was added to each well (N=3) and incubated for 30 minutes. For visualisation of the endoplasmic reticulum (ER), cells were stained with BODIPY® ER-Tracker® Red. 200 μl BODIPY ER-Tracker® Red (1 μM BODIPY® and 1 μM Formula I compound solution in cell culture media) was added to each well (N=3) and incubated for 30 minutes. Following incubation, the cell culture media containing dye was removed, and cells were washed twice with 200 μl phosphate buffered saline (PBS). After washing, 200 μl PBS was added into each well for imaging. For visualisation of the nuclear lamina, cells were probed with an anti-lamin A/C antibody. The cells were plated on 22×22 mm cover slips (10,000 cells/ml) and incubated for 2 days before staining. The cells were washed with PBS to remove excess media before staining. The cells were fixed with 4% paraformaldehyde (PFA) for 10 minutes at room temperature, before being washed twice in PBS for 5 minutes. Following washing, the cells were permeabilised in 0.4% Triton X-100 in PBS for 10 minutes. The cells were subsequently washed three times in PBS for 5 minutes, before being incubated in blocking buffer (1% BSA, 0.1% fish gelatine and 0.1% Triton X-100 in PBS) for 15 minutes at room temperature. The cells were incubated in primary antibody (mouse anti-lamin A/C IgG in blocking buffer) for 1 hour at room temperature. The cells were then washed twice in blocking buffer and incubated in secondary antibody (anti-mouse Alexa-594 IgG in blocking buffer) for 30 minutes at room temperature. Cells were washed twice in PBS for 10 minutes at room temperature. For cell staining with compounds of formula I, 5 μM of the compound of formula I in PBS was added to the cells for 30 minutes at room temperature. Cells were then washed five times for 5 minutes in PBS. Following washing, the cells were mounted onto non-charged microscopy slides using 6 μl Mowiol® per cover slip as mounting media. A Zeiss 880 confocal microscope was used for all the imaging work. [table] Image) Coloc2 software was used to calculate co-localization statistics between the compounds of formula I and the organelle marker images. The background was subtracted from each image and a region of interest (ROI) was used to target the analysis. The point spread function (PSF) of each image was calculated as 2.0 and Coastes' iterations was set to 100. The statistic quantified was the Pearson's Correlation Coefficient (PCC). PCC gives a number ranging from +1 to −1:1=perfect co-localisation; 0=no relationship; and, −1=perfect anti-co-localisation. […]
# [2] = system: Bacillus subtilis; test: Overnight growth curve (OD 600 nm) cytotoxicity assay, B. subtilis
# Procedure: A sample of B. subtilis was taken from a plate culture and inoculated into Luria Broth to culture overnight at 37° C. for approximately 16 hours. [table] Samples were incubated in darkness at room temperature for approximately 2 hrs. A black clear bottom Costar™-96 well plate was then filled, with 200 μl of sample in each well Cells were irradiated for 5 minutes at approximately 15 mW/cm^2. The cytotoxicity of the compounds without irradiation was also assessed. The 96 well plate was put into the plate reader and set up to run a growth curve protocol using the following parameters: • Incubation temperature: 37° C. • OD read wavelength 600 nm • 250 cycles, readings every 5 rains • Shaking for 5 s pre-reading This was left to run overnight to obtain kinetic growth curves based on optical density readings.
# [3] = system: Bacillus subtilis; test: Baclight staining (propidium iodide / Syto 9), widefield imaging, B. subtilis; conditions: 1 μM, 405 nm, 5 min
# Procedure: Samples prepared according to Table 9 were treated with compounds by diluting 10 mM of stock solution in media to make a 100 μM concentration. This solution was then further diluted 1:10 and 1:100 in media to make 10 μM and 1 μM media solutions containing the compound. 50 μl of cell culture were then added to the 100 μM, 10 μM and 1 μM compound-containing media preparations. Following the treatment outlined in Table 9, each of the three bacterial strains were stained using a Baclight™ staining kit containing separate solutions of Syto™ 9 and Propidium Iodide. One extra sample treated with 0.1 μM of each compound was also included in this assay. M. smegmatis, S. epidermis and B. subtilis were stained with propidium iodide to show non-viable cells and with Syto 9 to show all cells. The following staining procedure was used: • 1. 1 ml of each sample was eluted into a well of a 12-well plate; • 2. One half of the 12 well plate was irradiated at approximately 15 mW/cm^2 for 5 mins; • 3. The content of each well was eluted into separate Eppendorfs and centrifuged at 10,000 r.p.m for 3 rains to form a culture pellet; • 4. Media was then removed, and each pellet resuspended in 200 μl of 1× PBS before being centrifuged at 10,000 r.p.m. for 3 mins. • 5. A preparation of Baclight™-staining solution was made using 1 ml 1× PBS, 3 μl propidium iodide and 3 μl Syto™ 9; • 6. […]
structure (smiles),measurement,setting,value
"COC(=O)/C=C/c1ccc(C#Cc2ccc(N(C)CCN)cc2)cc1 [Compound 12, methyl (2E)-3-[4-(2-{4-[(2-aminoethyl)(methyl)amino]phenyl}ethynyl)phenyl]prop-2-enoate]",average PCC Value with BODIPY ER-Tracker,[1],0.34
same,"growth of B. subtilis, non-irradiated","[2]; 1 μM, not irradiated",slightly less growth than the untreated samples as well as an increased lag time
same,growth of B. subtilis,"[2]; 100 μM and 10 μM, with or without photoactivation",no growth is observed regardless of any photoactivation
same,cytotoxicity in B. subtilis compared with compound 6,[2]; 10 and 1 μM,more cytotoxicity
same,proportion of non-viable (red) cells following irradiation compared to non-irradiated sample,[3],the proportion of non-viable (red) cells is increased

# Source: patent US20220347299A1, “FLUORESCENT SYSTEMS FOR BIOLOGICAL IMAGING AND USES THEREOF” (LIGHTOX LIMITED, priority 2019, published 2022)
